Where a name gives a salt, the structure may show the parent alone. Read-outs that look alike come from different tables or passages of the source.
Columns and labels:
[1] = test system: CD11b and CD24 positive cells; test: In vivo efficacy study: flow cytometry of blood leukocytes from mice bearing NZM12 human melanoma xenografts; parameters: species or system NIH-III female mice; conditions: dosed daily for 14 days
[2] = target: T1, CSF-1R (FMS) (Homo sapiens (Human), UniProt P07333); conditions: representative value, substrate Tyr 01, ATP Bin 500 μM; read-out: IC50 (nM) of known inhibitor, CSF-1R (FMS); cited from earlier work
T1 sequence (P07333 20-972): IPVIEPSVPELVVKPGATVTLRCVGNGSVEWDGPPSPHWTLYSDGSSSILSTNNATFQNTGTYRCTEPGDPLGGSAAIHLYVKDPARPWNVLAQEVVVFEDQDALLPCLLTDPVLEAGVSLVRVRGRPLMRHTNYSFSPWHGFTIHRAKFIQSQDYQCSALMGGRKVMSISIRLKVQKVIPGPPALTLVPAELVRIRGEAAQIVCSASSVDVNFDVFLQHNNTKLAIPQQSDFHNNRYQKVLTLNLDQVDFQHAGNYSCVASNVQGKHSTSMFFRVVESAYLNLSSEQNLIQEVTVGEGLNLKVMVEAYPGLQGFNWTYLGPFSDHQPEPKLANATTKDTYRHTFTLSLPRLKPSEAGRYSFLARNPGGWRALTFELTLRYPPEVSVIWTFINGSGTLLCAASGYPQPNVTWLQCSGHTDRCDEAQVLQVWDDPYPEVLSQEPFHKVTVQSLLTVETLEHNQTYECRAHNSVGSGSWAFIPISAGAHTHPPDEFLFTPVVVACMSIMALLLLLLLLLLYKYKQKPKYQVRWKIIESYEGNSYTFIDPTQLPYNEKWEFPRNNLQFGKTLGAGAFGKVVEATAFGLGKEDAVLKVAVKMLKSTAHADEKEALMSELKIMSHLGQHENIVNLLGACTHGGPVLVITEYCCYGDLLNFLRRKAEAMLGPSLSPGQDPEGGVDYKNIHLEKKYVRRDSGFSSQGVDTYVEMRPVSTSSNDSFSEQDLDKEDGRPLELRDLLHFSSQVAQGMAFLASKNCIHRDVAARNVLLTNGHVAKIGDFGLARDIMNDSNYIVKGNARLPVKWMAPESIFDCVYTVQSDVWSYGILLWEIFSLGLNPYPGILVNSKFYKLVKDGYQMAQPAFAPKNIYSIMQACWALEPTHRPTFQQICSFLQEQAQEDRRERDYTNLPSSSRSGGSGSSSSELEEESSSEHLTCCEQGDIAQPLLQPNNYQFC

[3] = target: KDR (VEGFR2) (Homo sapiens (Human), UniProt P35968); test: SelectScreen Z'-LYTE kinase assay, Assay 540 for KDR (VEGFR2); assay type: biochemical; conditions: Z'-LYTE activity assay, 75 μM ATP (Km app); read-out: VEGFR2 Enzyme IC50
Sequence of KDR (VEGFR2) (P35968 20-1356): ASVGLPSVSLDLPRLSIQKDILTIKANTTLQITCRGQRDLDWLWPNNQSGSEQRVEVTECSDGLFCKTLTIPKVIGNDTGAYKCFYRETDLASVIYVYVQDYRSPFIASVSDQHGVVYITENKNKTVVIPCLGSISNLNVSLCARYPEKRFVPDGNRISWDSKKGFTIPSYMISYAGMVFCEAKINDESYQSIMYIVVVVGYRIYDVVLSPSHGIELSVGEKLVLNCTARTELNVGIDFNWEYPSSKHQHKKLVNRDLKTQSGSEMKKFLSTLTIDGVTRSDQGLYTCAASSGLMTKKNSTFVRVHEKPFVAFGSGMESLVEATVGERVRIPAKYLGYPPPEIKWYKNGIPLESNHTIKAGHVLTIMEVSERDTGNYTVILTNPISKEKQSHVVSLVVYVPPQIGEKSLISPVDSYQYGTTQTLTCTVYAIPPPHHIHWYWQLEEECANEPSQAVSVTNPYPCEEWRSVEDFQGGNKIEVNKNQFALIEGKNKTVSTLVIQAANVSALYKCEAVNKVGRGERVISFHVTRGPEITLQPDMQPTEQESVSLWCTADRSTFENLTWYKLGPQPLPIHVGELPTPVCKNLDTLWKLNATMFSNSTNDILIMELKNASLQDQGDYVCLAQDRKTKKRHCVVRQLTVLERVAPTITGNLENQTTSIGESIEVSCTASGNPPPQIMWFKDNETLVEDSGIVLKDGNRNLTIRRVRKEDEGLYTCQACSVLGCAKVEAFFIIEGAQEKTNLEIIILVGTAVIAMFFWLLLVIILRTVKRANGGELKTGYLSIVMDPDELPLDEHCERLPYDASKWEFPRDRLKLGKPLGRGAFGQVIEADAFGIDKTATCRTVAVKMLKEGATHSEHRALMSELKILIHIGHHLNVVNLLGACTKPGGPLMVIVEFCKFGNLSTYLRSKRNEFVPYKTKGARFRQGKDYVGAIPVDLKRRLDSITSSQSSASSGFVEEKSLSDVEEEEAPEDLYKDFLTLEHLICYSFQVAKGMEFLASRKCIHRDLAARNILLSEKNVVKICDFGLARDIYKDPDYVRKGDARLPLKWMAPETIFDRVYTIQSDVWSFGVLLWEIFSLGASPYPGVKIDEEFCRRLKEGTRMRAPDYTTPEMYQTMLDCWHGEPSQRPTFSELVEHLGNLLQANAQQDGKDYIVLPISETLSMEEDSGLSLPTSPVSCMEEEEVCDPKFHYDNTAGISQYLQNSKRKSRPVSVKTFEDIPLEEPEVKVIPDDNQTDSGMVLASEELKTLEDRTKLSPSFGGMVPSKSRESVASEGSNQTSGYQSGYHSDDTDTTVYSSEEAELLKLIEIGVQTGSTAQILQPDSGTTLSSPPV

[4] = target: T1, CSF-1R (FMS); test: SelectScreen Z'-LYTE kinase assay, Assay 336 for CSF-1R (FMS); assay type: biochemical; conditions: Z'-LYTE activity assay, 500 μM ATP (Km app); read-out: CSF-1R Enzyme IC50

SMILES	IC50 [3] [µM]	IC50 [4] [µM]	further results
FC(F)(F)c1ccc(CNc2ccc(Cc3c[nH]c4ncc(Cl)cc34)cn2)cn1 [PLX3397, Pexidartinib, reference compound]			number of cells of myeloid lineage in the treated mice [1]: reduce the number of cells of myeloid lineage
Cc1cc(OCCN(C)C)c2oc3cc(Oc4ccc(CCC(=O)NC5CCCC5)nc4)ccc3c(=O)c2c1 [dimethanesulfonate salt of compound 22, N-cyclopentyl-3-(5-((5-(2-(dimethylamino)ethoxy)-7-methyl-9-oxo-9H-xanthen-3-yl)-oxy)pyridin-2-yl)propanamide]			number of cells of myeloid lineage in the treated mice [1]: reduce the number of cells of myeloid lineage; levels of CD11b positive cells ([1]; blood leukocytes, versus PLX3397 and control (FIG. 1)): reduced the levels of CD11b and CD24 positive cells to a similar or greater extent compared with treatment with PLX3397; levels of CD24 positive cells ([1]; blood leukocytes, versus PLX3397 and control (FIG. 2)): reduced the levels of CD11b and CD24 positive cells to a similar or greater extent compared with treatment with PLX3397
COc1cc2ncnc(Nc3cccc(Cl)c3)c2cc1OC [Tyrphostin AG1478]			IC50 [2]: 6480 nM
COc1cc(Oc2ccc3c(=O)c4cc(C)cc(OCCN(C)C)c4oc3c2)cnc1OC [Example 9, 6-((5,6-Dimethoxypyridin-3-yl)oxy)-4-(2-(dimethylamino)ethoxy)-2-methyl-9H-xanthen-9-one]	> 10	< 0.1	
Cc1cc(OCCN(C)C)c2oc3cc(Oc4ccc(NCc5ccc(OC(F)(F)F)cc5)nc4)ccc3c(=O)c2c1 [Example 15, 4-(2-(Dimethylamino)ethoxy)-2-methyl-6-((6-((4-(trifluoromethoxy)benzyl)amino)-pyridin-3-yl)oxy)-9H-xanthen-9-one]	> 10	< 0.1	

Now from value to molecule, other results behind:

IC50 [3] [µM]	IC50 [4] [µM]	SMILES	further results
1 to 10	0.1 to 1	Cc1cc(OCCCN(C)C)c2oc3cc(Oc4ccccc4)ccc3c(=O)c2c1 [Example 30, 4-[3-(Dimethylamino)propoxy]-2-methyl-6-phenoxy-9H-xanthen-9-one]	
> 10	< 0.1	CNCCOc1cc(C)cc2c(=O)c3ccc(Oc4ccc(CCC(=O)NC5CCCC5)nc4)cc3oc12 [Example 29, N-Cyclopentyl-3-(5-((7-methyl-5-(2-(methylamino)ethoxy)-9-oxo-9H-xanthen-3-yl)oxy)pyridin-2-yl)propanamide]	
> 10	0.1 to 1	Cc1cc(OCCCN2CCOCC2)c2oc3cc(Oc4ccccc4)ccc3c(=O)c2c1 [Example 33, 2-Methyl-4-(3-morpholinopropoxy)-6-phenoxy-9H-xanthen-9-one]	
> 10	< 0.1	Cc1cc(OCCN(C)C)c2oc3cc(Oc4ccc(NCC(=O)NC5CCCC5)nc4)ccc3c(=O)c2c1 [Example 25, N-Cyclopentyl-2-((5-((5-(2-(dimethylamino)ethoxy)-7-methyl-9-oxo-9H-xanthen-3-yl)oxy)pyridin-2-yl)amino)acetamide]	
> 10	0.1 to 1	COc1ccc(Cc2ccc3c(=O)c4cc(C)cc(OCCN(C)C)c4oc3c2)cn1 [Example 19, 4-(2-(Dimethylamino)ethoxy)-6-((6-methoxypyridin-3-yl)methyl)-2-methyl-9H-xanthen-9-one]	
1 to 10	0.1 to 1	Cc1cc(OCCC2CCN(C)CC2)c2oc3cc(Oc4ccccc4)ccc3c(=O)c2c1 [Example 36, 2-Methyl-4-(2-(1-methylpiperidin-4-yl)ethoxy)-6-phenoxy-9H-xanthen-9-one]	
